According to US7868008B2, “Substituted isoindolones and their use as metabotropic glutamate receptor potentiators” (AstraZeneca AB, priority 2005, dated 2011):

Each molecule was assayed against T1, human mGluR2 (Homo sapiens, UniProt Q14416) (assay: mGluR2 potentiator assays described herein (FLIPR calcium mobilization in HEK 293 cells expressing chimeric mGluR2/CaR, or [35S]-GTPγS binding with CHO cell membranes)). Details: assay not specified (FLIPR or [35S]-GTPγS); allosteric activator/potentiator activity at mGluR2.
T1 construct: chimeric mGluR2/CaR construct comprising the extracellular and transmembrane domains of human mGluR2 and the intracellular domain of the human calcium receptor, fused
Format: cell-based
From the text: The pharmacological properties of the compounds of the invention can be analyzed using standard assays for functional activity. Examples of glutamate receptor assays are well known in the art as described in, for example, Aramori et al., 1992, Neuron, 8:757; Tanabe et al., 1992, Neuron, 8:169; Miller et al., 1995, J. Neuroscience, 15:6103; Balazs, et al., 1997, J. Neurochemistry, 1997, 69:151. The methodology described in these publications is incorporated herein by reference. Conveniently, the compounds of the invention can be studied by means of an assay that measures the mobilization of intracellular calcium, [Ca^2+]i in cells expressing mGluR2.
Fluorometric Imaging Plate Reader (FLIPR) analysis was used to detect allosteric activators of mGluR2 via calcium mobilization. A clonal HEK 293 cell line expressing a chimeric mGluR2/CaR construct comprising the extracellular and transmembrane domains of human mGluR2 and the intracellular domain of the human calcium receptor, fused to the promiscuous chimeric protein Gαqi5 was used. […] At 24-hours prior to analysis, the cells were trypsinized and plated in DMEM at 100,000 cells/well in black sided, clear-bottom, collagen I coated, 96-well plates. The plates were incubated under 5% CO2 at 37° C. overnight. Cells were loaded with 6 μM fluo-3 acetoxymethylester (Molecular Probes, Eugene Oreg.) for 60 minutes at room temperature. […]
FLIPR experiments were done using a laser setting of 0.8 W and a 0.4 second CCD camera shutter speed. […] An addition of test compound (0.01 μM to 30 μM in duplicate) was made after 10 seconds of baseline fluorescent readings were recorded on FLIPR. Fluorescent signals were then recorded for an additional 75 seconds at which point a second addition of DCG-IV (0.2 μM) was made and fluorescent signals were recorded for an additional 65 seconds. Fluorescent signals were measured as the peak height of the response within the sample period. Data was analyzed using Assay Explorer, and EC50 and Emax values (relative to maximum DCG-IV effect) were calculated using a four parameter logistic equation.
A [^35S]-GTPγS binding assay was used to functionally assay mGluR2 receptor activation. The allosteric activator activity of compounds at the human mGluR2 receptor were measured using a [^35S]-GTPγS binding assay with membranes prepared from CHO cells which stably express the human mGluR2. […] The GTPγS binding assay therefore provides a quantitative measure of receptor activation.
Membranes were prepared from CHO cells stably transfected with human mGluR2. […] The amount of radioactivity bound was determined by counting plates on the Packard TopCount. […]

T1 sequence (Q14416 19-819 limits assumed): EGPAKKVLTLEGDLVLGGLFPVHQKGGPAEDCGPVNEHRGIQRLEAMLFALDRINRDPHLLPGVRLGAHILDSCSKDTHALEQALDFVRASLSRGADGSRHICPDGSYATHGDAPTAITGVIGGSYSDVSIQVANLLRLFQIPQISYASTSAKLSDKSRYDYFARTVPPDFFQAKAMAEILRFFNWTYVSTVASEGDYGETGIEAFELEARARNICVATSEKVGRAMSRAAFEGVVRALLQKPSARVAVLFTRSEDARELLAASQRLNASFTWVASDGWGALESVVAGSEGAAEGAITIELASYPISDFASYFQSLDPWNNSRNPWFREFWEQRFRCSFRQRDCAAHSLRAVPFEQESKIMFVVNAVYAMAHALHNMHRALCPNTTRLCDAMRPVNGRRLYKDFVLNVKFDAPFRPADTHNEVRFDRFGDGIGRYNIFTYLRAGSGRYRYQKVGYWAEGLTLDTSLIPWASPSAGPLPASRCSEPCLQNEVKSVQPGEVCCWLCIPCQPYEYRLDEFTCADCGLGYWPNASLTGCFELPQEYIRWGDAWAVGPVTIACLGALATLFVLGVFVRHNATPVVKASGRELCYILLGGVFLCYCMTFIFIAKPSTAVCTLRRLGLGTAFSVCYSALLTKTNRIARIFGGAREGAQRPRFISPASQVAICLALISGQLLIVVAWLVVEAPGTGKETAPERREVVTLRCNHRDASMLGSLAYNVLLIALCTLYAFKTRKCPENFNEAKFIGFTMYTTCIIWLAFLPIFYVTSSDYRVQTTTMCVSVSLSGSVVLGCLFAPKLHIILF

EC50 [nM]	Structure (SMILES)
75	O=C1c2c(Cl)cc(-c3noc(CN4CCC(F)CC4)n3)cc2CN1Cc1ccc(OC(F)(F)F)cc1 [Example 8.3, 7-Chloro-5-[5-(4-fluoro-piperidin-1-ylmethyl)-[1,2,4]oxadiazol-3-yl]-2-(4-trifluoromethoxy-benzyl)-2,3-dihydro-isoindol-1-one]
230	Cc1cc(-c2nc(CN3CCN(C=O)CC3)no2)cc2c1C(=O)N(Cc1ccc(OC(F)(F)F)cc1)C2 [Example 10.4, 4-{5-[7-Methyl-1-oxo-2-(4-trifluoromethoxy-benzyl)-2,3-dihydro-1H-isoindol-5-yl]-[1,2,4]oxadiazol-3-ylmethyl}-piperazine-1-carbaldehyde]
84	Cc1cc(CC2CCN(Cc3ccccc3F)CC2)cc2c1C(=O)N(CC1CC1)C2 [Example 11, 2-Cyclopropylmethyl-5-[1-(2-fluorobenzyl)-piperidin-4-ylmethyl]-7-methyl-2,3-dihydro-isoindol-1-one]
28	Cc1cc(CC2CCN(Cc3ccc(F)cc3)CC2)cc2c1C(=O)N(CC1CCCCC1)C2 [Example 13.7, 2-Cyclohexylmethyl-5-[1-(4-fluoro-benzyl)-piperidin-4-ylmethyl]-7-methyl-2,3-dihydro-isoindol-1-one]
